In ChEMBL document CHEMBL1127709, “The rational development of small molecule tachykinin NK3 receptor selective antagonists - the utilisation of a dipeptide chemical library in drug design” (Bioorg Med Chem Lett, 1994):
One block for each molecule: values may come before it.

Tests used:
Cavia porcellus [1] = species on record: Cavia porcellus; experiment: In vitro inhibition of senktide-induced increases in spontaneous firing of guinea pig habenula neurones; assay type: functional
Substance-P receptor = Substance-P receptor (Homo sapiens, UniProt P25103); experiment: Binding affinity for NK1 receptor binding sites in human lymphoma IM9 cells by using [125I]-Bolton-Hunter substance P as radioligand; assay type: cell-based, IM-9
Chain of Substance-P receptor (P25103 whole entry): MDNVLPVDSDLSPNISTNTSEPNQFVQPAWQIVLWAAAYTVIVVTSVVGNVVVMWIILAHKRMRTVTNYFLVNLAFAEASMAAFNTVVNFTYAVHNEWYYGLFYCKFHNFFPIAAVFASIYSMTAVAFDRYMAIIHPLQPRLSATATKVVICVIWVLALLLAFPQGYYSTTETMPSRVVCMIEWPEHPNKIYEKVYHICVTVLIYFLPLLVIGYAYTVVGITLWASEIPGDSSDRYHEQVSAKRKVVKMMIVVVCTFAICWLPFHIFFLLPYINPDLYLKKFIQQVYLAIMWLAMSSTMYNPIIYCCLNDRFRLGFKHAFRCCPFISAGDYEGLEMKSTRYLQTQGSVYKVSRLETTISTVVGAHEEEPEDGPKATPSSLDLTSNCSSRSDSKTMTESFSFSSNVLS

CHO = experiment: In vitro inhibition of senktide-evoked increases in intracellular calcium levels in CHO cells using the fluorescent indicator Fura2; assay type: functional, Cricetulus griseus
Neuromedin-K receptor [2] = target: T1, Neuromedin-K receptor (Cavia porcellus, UniProt P30098); experiment: Binding affinity for NK3 receptor binding sites in guinea pig cortical membranes by using [125I][MePhe7]-NKB as radioligand; assay type: cell membranes
T1 sequence (P30098 whole entry): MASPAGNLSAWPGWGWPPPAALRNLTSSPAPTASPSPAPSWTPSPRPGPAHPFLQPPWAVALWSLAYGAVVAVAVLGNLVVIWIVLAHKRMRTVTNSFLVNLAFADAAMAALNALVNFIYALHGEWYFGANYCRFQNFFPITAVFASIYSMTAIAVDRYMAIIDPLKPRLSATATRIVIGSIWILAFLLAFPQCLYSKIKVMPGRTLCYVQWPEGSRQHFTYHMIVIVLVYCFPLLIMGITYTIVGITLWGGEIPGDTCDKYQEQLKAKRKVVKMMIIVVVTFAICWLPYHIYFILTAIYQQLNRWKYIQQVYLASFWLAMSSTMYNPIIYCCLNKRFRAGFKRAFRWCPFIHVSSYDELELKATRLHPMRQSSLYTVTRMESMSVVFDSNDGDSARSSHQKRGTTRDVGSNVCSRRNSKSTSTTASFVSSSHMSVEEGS

Cavia porcellus [3] = species on record: Cavia porcellus; experiment: In vitro inhibition of Isometric contractions from longitudinal muscle myenteric plexus preparations with responses to the NK3 receptor selective agonist senktide; assay type: functional
Substance-K receptor = target: T2, Substance-K receptor (Mesocricetus auratus, UniProt P51144); experiment: Binding affinity for NK2 receptor binding sites in membranes prepared from hamster urinary bladder by using [125I]NKA as radioligand
T2 sequence (P51144 whole entry): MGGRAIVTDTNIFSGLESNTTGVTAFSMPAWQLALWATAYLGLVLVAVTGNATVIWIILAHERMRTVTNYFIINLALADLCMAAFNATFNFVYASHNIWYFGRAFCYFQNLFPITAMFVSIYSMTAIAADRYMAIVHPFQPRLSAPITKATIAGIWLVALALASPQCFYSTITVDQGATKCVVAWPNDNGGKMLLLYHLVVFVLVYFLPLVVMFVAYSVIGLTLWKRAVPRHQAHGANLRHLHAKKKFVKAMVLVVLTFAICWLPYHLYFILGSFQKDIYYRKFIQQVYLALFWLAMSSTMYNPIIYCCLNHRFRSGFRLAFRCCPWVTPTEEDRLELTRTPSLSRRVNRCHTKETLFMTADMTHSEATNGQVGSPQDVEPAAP

Neuromedin-K receptor [4] = target: T3, Neuromedin-K receptor (Homo sapiens, UniProt P29371); experiment: Displacement of [125I][MePhe]-NKB from human NK3 receptor expressed in CHO cells; assay type: cell-based
T3 sequence (P29371 whole entry): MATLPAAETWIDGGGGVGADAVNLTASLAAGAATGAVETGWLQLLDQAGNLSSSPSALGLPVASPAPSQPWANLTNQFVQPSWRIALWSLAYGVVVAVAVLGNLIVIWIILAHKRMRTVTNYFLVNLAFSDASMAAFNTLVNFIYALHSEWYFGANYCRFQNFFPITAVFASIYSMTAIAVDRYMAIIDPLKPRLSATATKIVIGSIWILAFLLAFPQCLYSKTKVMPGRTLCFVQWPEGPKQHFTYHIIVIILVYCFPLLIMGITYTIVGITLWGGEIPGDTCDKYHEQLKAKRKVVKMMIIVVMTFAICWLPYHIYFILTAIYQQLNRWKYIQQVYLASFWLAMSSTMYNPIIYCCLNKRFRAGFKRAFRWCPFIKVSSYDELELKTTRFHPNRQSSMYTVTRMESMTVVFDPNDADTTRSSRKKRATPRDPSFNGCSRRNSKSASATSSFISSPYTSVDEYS

IC50 (Substance-P receptor): 10 µM
IC50 (Neuromedin-K receptor [2]): 0.015 µM
IC50 (Substance-K receptor): 5.02 µM
SMILES: CC(C)(C)OC(=O)N[C@@](C)(Cc1ccccc1)C(=O)N[C@H](Cc1ccccc1)C(=O)NCCCCCCCCC(N)=O
Ke (Cavia porcellus [1]): 25 nM
Ke (CHO): 15 nM
Ke (Cavia porcellus [3]): 13 nM

IC50 (Substance-P receptor): 10 µM
SMILES: CC(C)(C)OC(=O)N[C@@](C)(Cc1ccccc1)C(=O)N[C@H](Cc1ccccc1)C(=O)NCCCCCCCCO

SMILES: CC(C)(C)OC(=O)N[C@@H](Cc1ccccc1)C(=O)N[C@](C)(Cc1ccccc1)C(=O)NCCCCCCCNC(N)=O
Ke (CHO): 7 nM

IC50 (Neuromedin-K receptor [4]): 0.102 µM
SMILES: COCCCCCCCCNC(=O)C(Cc1ccccc1)NC(=O)[C@](C)(Cc1ccccc1)NC(=O)OC(C)(C)C (some centres undefined)
